Experimental data: PMC8305076, “Comprehensive Evaluation of Biological Effects of Pentathiepins on Various Human Cancer Cell Lines and Insights into Their Mode of Action” (International Journal of Molecular Sciences, 2021)
Like-named read-outs stand apart in the source and are kept apart here.

Tests used:
Assay type in all cases: cell-based
[1] = system: panel of 14 human cancer cell lines; test: crystal violet proliferation assay, whole panel; design: key to Antiproliferative effect: no impact (0); weak impact (+); strong impact (++); details: for GI50: mean over the cell line panel, normoxia, read-out: GI50 CV, mean per compound; for Antiproliferative effect: summary grade
Description: (§1) Distinct MTT cell viability and crystal violet cell proliferation assays were performed to assess the cytotoxicity of the compounds 1–6 on 14 human cancer cell lines. In the viability assay, cells with intact mitochondria and thus active dehydrogenases are competent to convert MTT to the corresponding insoluble formazan. The formazan can be photometrically detected after solubilization and allows for indirect conclusions about the viability of the cells as an IC50 value. In the crystal violet assay, cells are stained by the binding of the dye to the chromatin, thus allowing for a quantification of biomass that remains adherent after a treatment in comparison with a control after a specific time. Potency is defined as the growth inhibitory concentration 50% (GI50).
The antiproliferative effect of the pentathiepins on human cancer cell lines was analyzed by crystal violet assay based on the protocol of a previous publication. […] After dissolving in ethanol, the optical density was measured. Here, 1000 cells (250 for LCLC-103H) in 0.1 mL of medium were seeded per well of a 96 well plate and incubated at standard conditions for 24 h prior to treatment to allow for adhesion of the cells. A serial dilution of the test compounds was prepared in medium, covering final concentrations from 10.0 to 0.04 µM and 0.1 mL of the working solution added to each well in triplicate. Additionally, samples for each cell line were seeded and directly fixed after 24 h to measure the cell density at the beginning of treatment (t0). Fixation was performed by replacing medium with 0.1 mL of a solution containing 1% glutaraldehyde in Dulbecco’s buffer (0.2 g/L KCl, 0.1 g/L MgSO4·7 H2O, 1.55 g/L Na2HPO4·7 H2O, 0.2 g/L KH2HPO4, and 8 g/L NaCl in water) for 20 min. Plates were stored in 0.1 mL of Dulbecco’s buffer until further processing. After 96 h of treatment, the same fixation process was applied to the plates containing cells and test compounds. To stain the cells, 0.1 mL of an aqueous solution of crystal violet (0.02%) was added per well for 20 min, then discarded and the plates afterwards rinsed in clear water for 30 min. The dye was extracted in 50 µL of ethanol per well during 2 h of shaking. The plates were read at λ = 570 nm using a SpectraMax 384plus (Molecular Devices, Sunnyvale, CA, USA), and the proliferation of the treatment conditions was calculated in relation to a solvent control sample after subtracting the background value of the T0-plates. The GI50 (half-maximal growth inhibitory concentration) was calculated via nonlinear regression followed by interpolation of the dose–response graphs in Prism 7 (GraphPad, San Diego, CA, USA). […]

[2] = system: HAP-1; test: MTT cell viability assay; details: Homo sapiens; for IC50: HAP1, 48 h; for IC90: HAP1, calculated via GraphPad QuickCalcs from MTT IC50 and slope factor
Description: as §1
(§2) In addition to performing the cell viability assay under normoxia (19% atmospheric oxygen), incubations were also conducted under hypoxic conditions, i.e., atmospheric oxygen levels of 1% during the treatment for 48 h. Hypoxia is a favorable condition of the tumor microenvironment that is connected with poor outcome. Therefore, the low oxygen condition mimics better the tumor environment. The biological effect of the pentathiepins under this condition provides insight into their dependency for oxygen, which has been postulated a key component in the proposed mechanism of action (Figure 3). Consistent with the proposed mechanism of action for five of the compounds, potency decreased under hypoxic conditions; in fact for 6, the half-maximal inhibitory concentration exceeded the highest tested concentration of 10 µM in four cell lines (Figure 6, Table S3). […] In contrast to the other compounds, in some cell lines, the cytotoxic effects of 1 were more pronounced under oxygen-reduced incubation conditions (Figure 6), indicating a tangential role of oxygen availability for this pentathiepin. Especially for the breast cancer cell line MCF-7, the cytotoxicity increased substantially, indicated by a decrease of the IC50 from >10.0 µM to about 1.0 µM.
(§3) The effect of the pentathiepins on the viability of the cell lines was assessed via an MTT assay, performed as previously described. Healthy and viable cells convert the yellow soluble 3-(4,5-dimethylthiazol-2-yl)-2,5-diphenyltetrazolium bromide to the insoluble purple corresponding formazan, which can be spectrophotometrically measured. For this assay, 5000 cells (1 250 for LCLC-103H) in 0.1 mL of medium were seeded per well of a 96-well plate and incubated at standard conditions for 24 h prior to treatment. A serial dilution of the test compounds was prepared in medium, covering final concentrations from 10.0 to 0.04 µM, and 0.1 mL of the working solution was added to each well in triplicate. After 48 h, 20 µL of a 2.5 mg/mL MTT in PBS solution was pipetted into each well and further incubated for 4 h at standard conditions. Thereafter, medium was replaced with 50 µL DMSO, and the plates were put on a shaker for 5 min and subsequently read at λ = 570 nm, with a SpectraMax 384plus (Molecular Devices, Sunnyvale, CA, USA). The cell viabilities of the treatment conditions were calculated in relation to a solvent control sample. The absolute IC50 was calculated via nonlinear regression followed by interpolation of the dose–response graphs in Prism 7 (GraphPad, San Diego, CA, USA). The IC90 was derived from the IC50 by using the slope factor of the dose–response graph with the tool QuickCalcs from GraphPad (GraphPad Software, San Diego, CA, USA).

[3] = system: Kyse-70; test: MTT cell viability assay; details: Homo sapiens, 48 h
Description: as §1, §2, §3

[4] = system: YAPC; test: MTT cell viability assay; details: Homo sapiens; for IC50: 48 h; for IC90: calculated via GraphPad QuickCalcs from MTT IC50 and slope factor
Description: as §1, §2, §3

[5] = system: RT-4; test: MTT cell viability assay; details: Homo sapiens, 48 h
Description: as §1, §2, §3

[6] = system: A-427; test: MTT cell viability assay; details: Homo sapiens, 48 h
Description: as §1, §2, §3

[7] = system: RT-112; test: MTT cell viability assay; details: Homo sapiens, 48 h
Description: as §1, §2, §3

[8] = system: HAP-1.KO.GPx1; test: MTT cell viability assay; details: Homo sapiens; for IC50: 48 h; for IC90: calculated via GraphPad QuickCalcs from MTT IC50 and slope factor
Description: as §1, §2, §3

[9] = system: Siso; test: MTT cell viability assay; details: Homo sapiens; for IC50: 48 h; for IC90: calculated via GraphPad QuickCalcs from MTT IC50 and slope factor
Description: as §1, §2, §3

[10] = system: A2780; test: MTT cell viability assay; details: Homo sapiens; for IC50: 48 h; for IC90: calculated via GraphPad QuickCalcs from MTT IC50 and slope factor
Description: as §1, §2, §3

[11] = system: PATU-8902; test: MTT cell viability assay; details: Homo sapiens; for IC50: 48 h; for IC90: calculated via GraphPad QuickCalcs from MTT IC50 and slope factor
Description: as §1, §2, §3

[12] = system: LCLC-103H; test: MTT cell viability assay; details: Homo sapiens, 48 h
Description: as §1, §2, §3

[13] = hypoxic (1% O2), read-out: IC50 MTT-H mean
[14] = normoxic (19% O2), read-out: IC50 MTT-N mean

| GI50 ([1]; Homo sapiens) [µM] | Structure (SMILES) | Antiproliferative effect [1] | IC50 [2, 13] [µM] | IC50 [2, 14] [µM] | IC90 [2] [µM] | IC50 [3, 13] [µM] | IC50 [3, 14] [µM] | IC50 [4, 13] [µM] | IC50 [4, 14] [µM] | IC90 [4] [µM] | IC50 [5, 13] [µM] | IC50 [5, 14] [µM] | IC50 [6, 13] [µM] | IC50 [6, 14] [µM] | IC50 [7, 13] [µM] | IC50 [7, 14] [µM] | IC50 [8, 13] [µM] | IC50 [8, 14] [µM] | IC90 [8] [µM] | IC50 [9, 13] [µM] | also measured |
| --- | --- | --- | --- | --- | --- | --- | --- | --- | --- | --- | --- | --- | --- | --- | --- | --- | --- | --- | --- | --- | --- |
| 0.267 | CCOc1c2c(c3ccc(C(=O)N4CCN(C(=O)c5ccc(F)cc5)CC4)cn13)SSSSS2 [Compound 5, (6-Ethoxy-[1,2,3,4,5]pentathiepino[6,7-a]indolizin-9-yl)(4-(4-fluorobenzoyl)piperazinyl)methanone] | ++ | 0.661 | 0.27 | 0.49 | 1.52 | 0.826 | 1.52 | 1.36 | 2.2 | 1.74 | 0.716 | 0.834 | 0.906 | 1.12 | 1.08 | 0.912 | 0.413 | 0.72 | 1.85 | IC50 [9, 14]: 0.794 µM; IC90 [9]: 1.47 µM; IC50 [10, 13]: 0.588 µM; IC50 [10, 14]: 0.259 µM; IC90 [10]: 0.51 µM; IC50 [11, 13]: 1.55 µM; IC50 [11, 14]: 1.2 µM; IC90 [11]: 2.57 µM; IC50 [12, 13]: 0.677 µM; IC50 [12, 14]: 0.8 µM |
| 0.57 | CCOc1c2c(c3ccc(C(=O)N4CCN(S(=O)(=O)c5ccc(C)cc5)CC4)cn13)SSSSS2 [Compound 6, (6-Ethoxy-[1,2,3,4,5]pentathiepino[6,7-a]indolizin-9-yl)(4-tosylpiperazinyl)methanone] | + | 1.32 | 0.722 | 1.46 | > 10 | 1.95 | 3.72 | 5.17 | 17.9 | 5.05 | 1.55 | 1.39 | 1.79 | > 10 | 3.41 | 1.84 | 0.778 | 1.46 | > 10 | GI50 [1]: 0.671 µM; IC50 [9, 14]: 3.26 µM; IC90 [9]: 5.07 µM; IC50 [10, 13]: 2.11 µM; IC50 [10, 14]: 0.891 µM; IC90 [10]: 2.39 µM; IC50 [11, 13]: > 10 µM; IC50 [11, 14]: 2.98 µM; IC90 [11]: 7.58 µM; IC50 [12, 13]: 2.53 µM; IC50 [12, 14]: 2.82 µM |
